Each compound was assayed against T1, human capsaicin receptor (Homo sapiens, UniProt Q8NER1) (assay: Antagonist assay for Capsaicin receptor mediated calcium mobilization). Details: Table III, read-out: EC50 (the source's name).
T1 construct: expression consrtuct encoding the full length human capsaicin receptor; expressed in transfected cells
Format: cell-based
Procedure: Calcium Mobilization Assay
Cells transfected with expression plasmids (as described in Example 10) and thereby expressing the human capsaicin receptor are seeded and grown to 70-90% confluency in FALCON black-walled, clear-bottomed 96-well plates (#3904, BECTON-DICKINSON, Franklin Lakes, N.J.) . The culture media are emptied from the 96 well plates and FLUO-3 AM calcium sensitive dye (Molecular Probes, Eugene, OR) is added to each well (dye solution: 1 mg FLUO-3 AM, 440 uL DMSO and 440 ul 20% pluronic acid in DMSO, diluted 1:4, 50 ul diluted solution per well). Plates are covered with aluminum foil and incubated at 37° C for 1-2 hours in an environment containing 5% CO2. After the incubation the dye is emptied from the plates, and the cells are washed once with Krebs-Ringer HEPES (KRH) buffer (25 mM HEPES, 5 mM KCl, 0.96 mM NaH2PO4, 1 MM MgSO4, 2 mM CaCl2, 5 mM glucose, 1 mM probenecid, pH 7.4), and resuspended in KRH buffer.
Agonist (e.g., olvanil, capsaicin, or RTX)-induced calcium mobilization is monitored using either FLUOROSKAN ASCENT (Labsystems, Franklin, Mass.) or FLIPR (fluorometric imaging plate reader system, Molecular Devices, Sunnyvale, Calif.) instruments. Similarly, varying concentrations of the antagonists ruthenium red or capsazepine are added to cells concurrently with agonist (e.g., 25-50 nM capsaicin). For agonist-induced calcium responses, data obtained between 30 and 60 seconds after agonist application are used to generate the EC50 values. […] software (Synergy Software, Reading, Pa.) was utilized to fit the data to the equation: […]
to determine the EC50 for the response. In this equation, y is the maximum fluorescence signal, x is the concentration of the agonist or antagonist, a is the Emax, b corresponds to the EC50 or IC50 value, and finally, c is the Hill coefficient.
Assay for Determination of Capsaicin Receptor Antagonist Effects
In order to measure the ability of a test compound to antagonize (inhibit) the response of cells expressing capsaicin receptors to capsaicin or other vanilloid agonist, the EC50 of capsaicin is first determined.
An additional 20 ul of KRH buffer and 1 ul DMSO is added to each well of cells, prepared as described above. 100 ul capsaicin in KRH buffer is automatically transferred by the FLIPR instrument to each well.
Test compounds are dissolved in DMSO, diluted in 20 ul KRH buffer so that the final concentration of test compounds in the assay well is between 1 uM and 5 uM, and added to cells prepared as described above. The 96 well plates containing prepared cells and test compounds are incubated in the dark, at room temperature for 0.5-6 hours. It is important that the incubation not continue beyond 6 hours. Just prior to determining the fluorescence response, 100 ul capsaicin in KRH buffer at twice the EC50 concentration determined from the concentration response curve is automatically added by the FLIPR instrument to each well of the 96 well plate for a final sample volume of 200 ul and a final capsaicin concentration equal to the EC50. The final concentration of test compounds in the assay wells is between 1 uM and 5 uM. […] Antagonists of the capsaicin receptor decrease this response by about 20%, preferably by about 50%, and most preferably by at least 80% as compared to matched control. The concentration of antagonist required to provide a 50% decrease is the EC50 for the antagonist (also referred to as the IC50).

T1 sequence (Q8NER1 whole entry): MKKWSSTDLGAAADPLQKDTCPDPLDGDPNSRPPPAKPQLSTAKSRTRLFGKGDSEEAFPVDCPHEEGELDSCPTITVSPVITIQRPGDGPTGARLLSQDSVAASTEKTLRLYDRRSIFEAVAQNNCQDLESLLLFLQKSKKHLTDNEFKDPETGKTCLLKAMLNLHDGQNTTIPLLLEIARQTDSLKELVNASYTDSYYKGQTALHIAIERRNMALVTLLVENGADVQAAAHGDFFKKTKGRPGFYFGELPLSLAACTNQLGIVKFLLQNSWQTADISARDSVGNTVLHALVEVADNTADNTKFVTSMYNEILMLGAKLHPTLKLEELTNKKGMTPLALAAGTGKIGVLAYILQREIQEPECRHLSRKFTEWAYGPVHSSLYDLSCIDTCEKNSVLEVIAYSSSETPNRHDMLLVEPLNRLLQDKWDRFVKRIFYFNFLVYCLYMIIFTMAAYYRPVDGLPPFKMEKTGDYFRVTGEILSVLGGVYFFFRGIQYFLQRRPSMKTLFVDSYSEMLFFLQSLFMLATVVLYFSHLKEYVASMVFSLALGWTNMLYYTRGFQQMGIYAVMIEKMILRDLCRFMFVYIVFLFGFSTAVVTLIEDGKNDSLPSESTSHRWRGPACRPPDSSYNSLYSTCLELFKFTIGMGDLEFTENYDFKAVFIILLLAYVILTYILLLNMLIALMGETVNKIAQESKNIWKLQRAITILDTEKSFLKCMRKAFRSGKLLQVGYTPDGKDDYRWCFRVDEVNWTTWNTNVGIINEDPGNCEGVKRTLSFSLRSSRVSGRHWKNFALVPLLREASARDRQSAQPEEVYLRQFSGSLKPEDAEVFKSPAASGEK

IC50 [µM]	Structure (SMILES)
< 1	CCC1CN(c2ncccc2Cl)CCN1C(=O)Nc1ccc(C(F)(F)F)cc1 (centres unmarked) [Compound 59, 4-(3-chloropyridin-2-yl)-2-ethyl-N-[4-(trifluoromethyl)phenyl]piperazine-1-carboxamide]
< 1	C[C@@H]1CN(c2ncccc2Cl)CCN1C(=O)Nc1ccc(C(F)(F)F)cc1F [Compound 27, (2R)-4-(3-chloropyridin-2-yl)-N-[2-fluoro-4-(trifluoromethyl)phenyl]-2-methylpiperazine-1-carboxamide]
< 1	CC1CN(c2ncccc2Cl)CC(C)N1C(=O)Nc1ccc(C(C)(C)C)cc1 (centres unmarked) [Compound 32, N-(4-tert-butylphenyl)-4-(3-chloropyridin-2-yl)-2,6-dimethylpiperazine-1-carboxamide]
< 1	CC(C)C1CN(c2ncccc2C(F)(F)F)CCN1C(=O)Nc1ccc(C(F)(F)F)cc1 (centres unmarked) [Compound 73, 2-isopropyl-N-[4-(trifluoromethyl)phenyl]-4-[3-(trifluoromethyl)pyridin-2-yl]piperazine-1-carboxamide]
< 1	CCC1CN(c2ncccc2Cl)CCN1C(=O)Nc1ccc(C(C)(C)C)cc1 (centres unmarked) [Compound 58, N-(4-tert-butylphenyl)-4-(3-chloropyridin-2-yl)-2-ethylpiperazine-1-carboxamide]
< 1	COc1cccnc1N1CCN(C(=O)Nc2ccc(C(C)(C)C)cc2)[C@H](C)C1 [Compound 45, (2R)-N-(4-tert-butylphenyl)-4-(3-methoxypyridin-2-yl)-2-methylpiperazine-1-carboxamide]
< 1	CC(C)c1ccc(NC(=O)N2CCN(c3ncccc3C(F)(F)F)C[C@H]2C)cc1 [Compound 30, (2R)-N-(4-isopropylphenyl)-2-methyl-4-[3-(trifluoromethyl)pyridin-2-yl]piperazine-1-carboxamide]
< 1	Cc1cccc(N2CCN(C(=O)Nc3ccc(C(C)(C)C)cc3)[C@H](C)C2)n1 [Compound 86, (2R)-N-(4-tert-butylphenyl)-2-methyl-4-(6-methylpyridin-2-yl)piperazine-1-carboxamide]
< 1	CCc1nc(-c2ccc(NC(=O)N3CCN(c4ncccc4Cl)C[C@H]3C)cc2)cs1 [Compound 53, (2R)-4-(3-chloropyridin-2-yl)-N-[4-(2-ethyl-1,3-thiazol-4-yl)phenyl]-2-methylpiperazine-1-carboxamide]
< 1	CC(C)C1CN(c2ncccc2Cl)CCN1C(=O)Nc1ccc(C(C)(C)C)cc1 (centres unmarked) [Compound 69, N-(4-tert-butylphenyl)-4-(3-chloropyridin-2-yl)-2-isopropylpiperazine-1-carboxamide]
< 1	CC(C)c1ccc(NC(=O)N2CCN(c3ncccc3F)C[C@H]2C)cc1 [Compound 77, (2R)-4-(3-fluoropyridin-2-yl)-N-(4-isopropylphenyl)-2-methylpiperazine-1-carboxamide]

Same assay, conditions: Table IV, read-out: EC50 (the source's name)

IC50 [µM]	Structure (SMILES)
< 1	C[C@@H]1CN(c2ncccc2Cl)CCN1C(=O)Nc1ccc(C(F)(F)F)cn1 [Compound 94, (2R)-4-(3-chloropyridin-2-yl)-2-methyl-N-[5-(trifluoromethyl)pyridin-2-yl]piperazine-1-carboxamide]
< 1	CC(C)c1ccc(NC(=O)N2CCN(c3nccnc3Cl)C[C@H]2C)cc1 [Compound 96, (2R)-4-(3-chloropyrazin-2-yl)-N-(4-isopropylphenyl)-2-methylpiperazine-1-carboxamide]

Same assay, conditions: Table V, read-out: EC50 (the source's name)

IC50 [µM]	Structure (SMILES)
< 1	C[C@@H]1CN(c2ncccc2Cl)CCN1C(=O)Nc1ccc(C(F)(C(F)(F)F)C(F)(F)F)cc1 [Compound 162, (2R)-4-(3-chloropyridin-2-yl)-2-methyl-N-{4-[1,2,2,2-tetrafluoro-1-(trifluoromethyl)ethyl]phenyl}piperazine-1-carboxamide]
< 1	C[C@@H]1CN(c2ncccc2C(F)(F)F)CCN1C(=O)Nc1ccc(F)c(C(F)(F)F)c1 [Compound 161, (2R)-N-[4-fluoro-3-(trifluoromethyl)phenyl]-2-methyl-4-[3-(trifluoromethyl)pyridin-2-yl]piperazine-1-carboxamide]
< 1	C[C@@H]1CN(c2ncccc2S(N)(=O)=O)CCN1C(=O)Nc1ccc(C(C)(C)C)cc1 [Compound 139, (2R)-4-[3-(aminosulfonyl)pyridin-2-yl]-N-(4-tert-butylphenyl)-2-methylpiperazine-1-carboxamide]
< 1	CCC(C)c1ccc(NC(=O)N2CCN(c3ncccc3F)C[C@H]2C)cc1 (stereo partly drawn) [Compound 128, (2R)-N-(4-sec-butylphenyl)-4-(3-fluoropyridin-2-yl)-2-methylpiperazine-1-carboxamide]
< 1	C[C@@H]1CN(c2ncc(N)cc2Cl)CCN1C(=O)Nc1ccc(C(F)(F)F)cc1 [Compound 132, (2R)-4-(5-amino-3-chloropyridin-2-yl)-2-methyl-N-[4-(trifluoromethyl)phenyl]piperazine-1-carboxamide]
< 1	C[C@@H]1CN(c2ncccc2F)CCN1C(=O)Nc1cccc(I)c1 [Compound 151, (2R)-4-(3-fluoropyridin-2-yl)-N-(3-iodophenyl)-2-methylpiperazine-1-carboxamide]
< 1	C=C(c1ccc(NC(=O)N2CCN(c3ncccc3C(F)(F)F)C[C@H]2C)cc1)C(F)(F)F [Compound 126, (2R)-2-methyl-4-[3-(trifluoromethyl)pyridin-2-yl]-N-{4-[1-(trifluoromethyl)vinyl]phenyl}piperazine-1-carboxamide]
< 1	C[C@@H]1CN(c2ncccc2C(F)(F)F)CCN1C(=O)Nc1ccc(C(C(F)(F)F)(C(F)(F)F)C(F)(F)F)cc1 [Compound 149, (2R)-2-methyl-N-{4-[2,2,2-trifluoro-1,1-bis(trifluoromethyl)-ethyl]phenyl}-4-[3-(trifluoromethyl)pyridin-2-yl]piperazine-1-carboxamide]
< 1	O=C(Nc1cccc([N+](=O)[O-])c1)N1CCN(c2ncccc2C(F)(F)F)CC1 [Compound 116, N-(3-nitrophenyl)-4-[3-(trifluoromethyl)pyridin-2-yl]piperazine-1-carboxamide]
< 1	CC(c1ccc(NC(=O)N2CCN(c3ncccc3F)C[C@H]2C)cc1)C(F)(F)F (stereo partly drawn) [Compound 130, (2R)-4-(3-fluoropyridin-2-yl)-2-methyl-N-[4-(2,2,2-trifluoro-1-methylethyl)phenyl]piperazine-1-carboxamide]
< 1	C[C@@H]1CN(c2ncccc2Cl)CCN1C(=O)Nc1ccc(Cl)c(C(F)(F)F)c1 [Compound 158, (2R)-4-(3-chloropyridin-2-yl)-N-[4-chloro-3-(trifluoromethyl)phenyl]-2-methylpiperazine-1-carboxamide]
< 1	C=C(c1ccc(NC(=O)N2CCN(c3ncccc3F)C[C@H]2C)cc1)C(F)(F)F [Compound 127, (2R)-4-(3-fluoropyridin-2-yl)-2-methyl-N-{4-[1-(trifluoromethyl)vinyl]phenyl}piperazine-1-carboxamide]

Same assay, conditions: Table VI, read-out: EC50 (the source's name)

IC50 [µM]	Structure (SMILES)
< 1	C[C@@H]1CN(c2ncccc2Cl)CCN1C(=S)Nc1ccc(C(F)(F)F)cc1 [Compound 172]
< 1	C[C@@H]1CN(c2nccnc2Cl)CCN1C(=O)Nc1ccc(C(F)(C(F)(F)F)C(F)(F)F)cc1 [Compound 164, (2R)-4-(3-chloropyrazin-2-yl)-2-methyl-N-{4-[1,2,2,2-tetrafluoro-1-(trifluoromethyl)ethyl]phenyl}piperazine-1-carboxamide]
< 1	C[C@@H]1CN(c2nccnc2Cl)CCN1C(=O)Nc1ccc(C2CCCCC2)cc1 [Compound 166, (2R)-4-(3-chloropyrazin-2-yl)-2-methyl-N-{4-cyclohexyl-phenyl}piperazine-1-carboxamide]
< 1	CCCCc1ccc(NC(=S)N2CCN(c3ncccc3Cl)C[C@H]2C)cc1 [Compound 167]

— patent US20020132853A1, “Capsaicin receptor ligands” (priority 2000, published 2002)
